This test deals with T1, RIPK1 (Homo sapiens, UniProt Q13546).
T1 construct: AA 1–479, GST fusion
T1 sequence (Q13546 1-479): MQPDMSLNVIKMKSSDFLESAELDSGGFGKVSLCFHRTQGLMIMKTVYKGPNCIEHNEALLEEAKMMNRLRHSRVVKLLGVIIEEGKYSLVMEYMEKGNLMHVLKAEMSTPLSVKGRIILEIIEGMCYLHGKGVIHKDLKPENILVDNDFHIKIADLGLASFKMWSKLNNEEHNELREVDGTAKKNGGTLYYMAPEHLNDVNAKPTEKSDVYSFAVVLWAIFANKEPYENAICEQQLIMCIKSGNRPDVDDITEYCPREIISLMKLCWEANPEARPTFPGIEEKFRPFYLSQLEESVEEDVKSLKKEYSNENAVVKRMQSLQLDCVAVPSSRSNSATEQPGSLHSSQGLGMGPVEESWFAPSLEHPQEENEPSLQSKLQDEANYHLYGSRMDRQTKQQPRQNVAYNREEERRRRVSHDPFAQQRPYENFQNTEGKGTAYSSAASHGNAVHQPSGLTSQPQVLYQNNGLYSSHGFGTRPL
Nature of the test: ADP-Glo in vitro kinase assay with recombinant RIPK1 ([…] reduction at […]). The class given is biochemical.

Usually inhibition stands for the relative decrease from the control value, in per cent. `CC(C)(C)c1cc(O)ccc1O` [TBHQ]: the inhibition at 100 µM is roughly 60%.

(Values after paper PMC8280128, “Antioxidant and food additive BHA prevents TNF cytotoxicity by acting as a direct RIPK1 inhibitor” (Cell Death & Disease, 2021).)
